Laboratory results from ChEMBL document CHEMBL1137777, “Design, synthesis, and evaluation of indolinones as triple angiokinase inhibitors and the discovery of a highly specific 6-methoxycarbonyl-substituted indolinone (BIBF 1120)” (J Med Chem, 2009).
Each block holds one compound with its values, some of them ahead of it.

Columns and labels:
HUVEC = assay: cells; conditions: Homo sapiens, 3 h
Description: Antiangiogenic activity in HUVEC assessed as inhibition of VEGF-induced cell proliferation by [3H]thymidine incorporation assay

HeLa = assay: Antiangiogenic activity against human HeLa cells assessed as inhibition of cell proliferation by [3H]thymidine incorporation assay; format: functional, cell-based
[1] = biological target: Vascular endothelial growth factor receptor 2 (Homo sapiens, UniProt P35968); assay: Inhibition of human VEGFR2 expressed in Sf9 cells
[2] = AUC in NMRI nu/nu mouse at 50 mg/kg, po administered as single dose; format: ADME, organism-based, Plasma; parameters: dose 50 mg/kg, route oral; conditions: NMRI nu/nu, plasma
[3] = biological target: Vascular endothelial growth factor receptor 3 (Homo sapiens, UniProt P35916)
Description: Inhibition of human VEGFR3

[4] = Half life in NMRI nu/nu mouse at 50 mg/kg, po administered as single dose; format: ADME, organism-based; parameters: dose 50 mg/kg, route oral; conditions: in vivo
[5] = biological target: Vascular endothelial growth factor receptor 1 (Homo sapiens, UniProt P17948)
Description: Inhibition of human VEGFR1

[6] = biological target: Fibroblast growth factor receptor 1 (Homo sapiens, UniProt P11362)
Description: Inhibition of human FGFR1

[7] = biological target: Platelet-derived growth factor receptor alpha (Homo sapiens, UniProt P16234)
Description: Inhibition of human PDGFRalpha

[8] = Cmax in NMRI nu/nu mouse at 50 mg/kg, po administered as single dose; format: ADME, organism-based; parameters: dose 50 mg/kg, route oral; conditions: in vivo
[9] = biological target: Receptor tyrosine-protein kinase erbB-2 (Homo sapiens, UniProt P04626); assay: Inhibition of human HER2
Insulin receptor = Insulin receptor (Homo sapiens, UniProt P06213); assay: Inhibition of human InsR
[10] = biological target: Cyclin-dependent kinase 1 (Homo sapiens, UniProt P06493); assay: Inhibition of human CDK1
[11] = biological target: Epidermal growth factor receptor (Homo sapiens, UniProt P00533); assay: Inhibition of human EGFR
[12] = biological target: Serine/threonine-protein kinase PLK1 (Homo sapiens, UniProt P53350); assay: Inhibition of human Plk1
[13] = biological target: Insulin-like growth factor 1 receptor (Homo sapiens, UniProt P08069); assay: Inhibition of human IGFR1
[14] = biological target: Cyclin-dependent kinase 4 (Homo sapiens, UniProt P11802); assay: Inhibition of human CDK4
Calu-6 = assay: Antiangiogenic activity against human Calu6 cells assessed as inhibition of cell proliferation by [3H]thymidine incorporation assay; format: functional, cell-based
[15] = Plasma concentration in NMRI nu/nu mouse at 40 mg/kg, po administered as single dose after 2 hrs; format: ADME, organism-based; parameters: dose 40 mg/kg, route oral
FaDu [16] = assay: Antiangiogenic activity against human FADU cells assessed as inhibition of cell proliferation by [3H]thymidine incorporation assay; format: functional, cell-based
FaDu [17] = assay: Antitumor activity against human FADU cells xenografted NMRI nu/nu mouse assessed as inhibition of mean tumor volume growth at 50 mg/kg, po qd after 21 days relative to control; format: functional
[18] = Plasma concentration in NMRI nu/nu mouse at 40 mg/kg, po administered as single dose after 24 hrs; format: ADME, organism-based; parameters: dose 40 mg/kg, route oral
FaDu [19] = assay: Antitumor activity against human FADU cells xenografted NMRI nu/nu mouse assessed as inhibition of mean tumor volume growth at 100 mg/kg, po qd after 21 days relative to control; format: functional
FaDu [20] = assay: Antitumor activity against human FADU cells xenografted NMRI nu/nu mouse assessed as inhibition of mean tumor volume growth at 50 mg/kg, po bid after 21 days relative to control; format: functional

Sequence of Vascular endothelial growth factor receptor 2 (P35968 whole entry): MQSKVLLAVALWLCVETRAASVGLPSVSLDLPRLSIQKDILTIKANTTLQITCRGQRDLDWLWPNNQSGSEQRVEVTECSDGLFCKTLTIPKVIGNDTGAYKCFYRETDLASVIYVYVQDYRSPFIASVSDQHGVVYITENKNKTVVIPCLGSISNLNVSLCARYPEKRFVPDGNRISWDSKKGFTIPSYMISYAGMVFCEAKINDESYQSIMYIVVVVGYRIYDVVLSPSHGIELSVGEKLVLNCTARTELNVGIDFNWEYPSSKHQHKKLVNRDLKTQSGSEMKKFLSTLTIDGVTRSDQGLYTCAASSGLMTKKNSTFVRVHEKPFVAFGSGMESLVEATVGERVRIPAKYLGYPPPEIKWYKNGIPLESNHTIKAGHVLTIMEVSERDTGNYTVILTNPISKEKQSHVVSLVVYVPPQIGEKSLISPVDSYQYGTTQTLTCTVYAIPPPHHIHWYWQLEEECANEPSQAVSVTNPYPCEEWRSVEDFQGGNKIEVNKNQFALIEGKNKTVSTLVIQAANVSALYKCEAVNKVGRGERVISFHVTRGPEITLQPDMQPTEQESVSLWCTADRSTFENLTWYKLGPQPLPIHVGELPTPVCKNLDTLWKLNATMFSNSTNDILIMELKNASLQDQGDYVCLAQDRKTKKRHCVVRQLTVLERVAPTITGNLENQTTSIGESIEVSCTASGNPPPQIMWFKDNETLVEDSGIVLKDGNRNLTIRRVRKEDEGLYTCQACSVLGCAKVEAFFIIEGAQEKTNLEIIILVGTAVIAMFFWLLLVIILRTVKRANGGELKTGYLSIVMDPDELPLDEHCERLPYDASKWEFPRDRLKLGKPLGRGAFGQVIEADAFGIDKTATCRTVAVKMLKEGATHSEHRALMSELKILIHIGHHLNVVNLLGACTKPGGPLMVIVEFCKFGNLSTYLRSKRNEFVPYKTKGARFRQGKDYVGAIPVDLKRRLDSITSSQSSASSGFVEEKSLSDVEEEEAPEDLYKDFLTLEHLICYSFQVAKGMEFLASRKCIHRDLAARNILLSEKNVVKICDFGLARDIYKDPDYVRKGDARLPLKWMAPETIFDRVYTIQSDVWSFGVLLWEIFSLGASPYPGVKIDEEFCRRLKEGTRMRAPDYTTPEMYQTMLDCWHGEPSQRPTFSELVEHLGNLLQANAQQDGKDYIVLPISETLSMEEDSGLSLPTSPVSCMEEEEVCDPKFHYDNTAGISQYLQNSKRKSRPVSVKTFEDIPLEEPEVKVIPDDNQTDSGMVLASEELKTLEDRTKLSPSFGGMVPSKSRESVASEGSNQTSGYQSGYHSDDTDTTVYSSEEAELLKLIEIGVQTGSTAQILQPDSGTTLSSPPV
Sequence of Vascular endothelial growth factor receptor 3 (P35916 whole entry): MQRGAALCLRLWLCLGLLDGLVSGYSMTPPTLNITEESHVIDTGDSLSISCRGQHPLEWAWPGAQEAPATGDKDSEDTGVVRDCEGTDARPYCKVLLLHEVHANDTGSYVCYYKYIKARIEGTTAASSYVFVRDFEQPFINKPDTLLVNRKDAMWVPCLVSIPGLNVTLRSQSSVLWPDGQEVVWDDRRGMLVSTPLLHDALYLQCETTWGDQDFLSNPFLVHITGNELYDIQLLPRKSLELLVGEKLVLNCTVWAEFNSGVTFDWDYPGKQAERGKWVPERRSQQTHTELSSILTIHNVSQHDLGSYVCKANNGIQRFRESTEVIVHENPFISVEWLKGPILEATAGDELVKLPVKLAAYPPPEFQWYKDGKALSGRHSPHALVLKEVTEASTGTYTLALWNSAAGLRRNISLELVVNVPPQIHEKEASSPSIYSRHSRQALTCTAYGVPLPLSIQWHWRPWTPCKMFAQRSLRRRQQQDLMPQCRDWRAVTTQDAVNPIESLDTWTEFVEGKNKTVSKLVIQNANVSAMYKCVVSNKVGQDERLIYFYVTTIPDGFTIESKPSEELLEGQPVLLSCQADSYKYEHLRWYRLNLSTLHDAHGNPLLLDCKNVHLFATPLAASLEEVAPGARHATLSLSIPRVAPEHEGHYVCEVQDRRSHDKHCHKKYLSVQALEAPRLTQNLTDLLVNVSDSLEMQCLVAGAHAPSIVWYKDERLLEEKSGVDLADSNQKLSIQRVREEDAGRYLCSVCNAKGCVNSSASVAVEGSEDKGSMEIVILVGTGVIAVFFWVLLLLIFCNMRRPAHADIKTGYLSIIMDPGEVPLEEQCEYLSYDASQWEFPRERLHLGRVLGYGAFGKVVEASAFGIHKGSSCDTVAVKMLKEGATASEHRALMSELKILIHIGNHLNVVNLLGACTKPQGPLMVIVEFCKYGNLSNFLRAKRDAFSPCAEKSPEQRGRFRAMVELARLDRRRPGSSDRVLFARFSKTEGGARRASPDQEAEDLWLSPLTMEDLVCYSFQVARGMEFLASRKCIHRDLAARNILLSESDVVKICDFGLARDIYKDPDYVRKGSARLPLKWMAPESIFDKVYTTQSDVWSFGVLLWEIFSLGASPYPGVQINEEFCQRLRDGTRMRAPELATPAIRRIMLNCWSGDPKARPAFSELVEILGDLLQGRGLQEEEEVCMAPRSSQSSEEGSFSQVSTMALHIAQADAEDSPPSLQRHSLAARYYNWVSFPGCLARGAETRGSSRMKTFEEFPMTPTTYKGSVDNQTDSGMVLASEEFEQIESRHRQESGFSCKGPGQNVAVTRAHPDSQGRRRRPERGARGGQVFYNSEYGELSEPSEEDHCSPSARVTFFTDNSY
Sequence of Receptor tyrosine-protein kinase erbB-2 (P04626 whole entry): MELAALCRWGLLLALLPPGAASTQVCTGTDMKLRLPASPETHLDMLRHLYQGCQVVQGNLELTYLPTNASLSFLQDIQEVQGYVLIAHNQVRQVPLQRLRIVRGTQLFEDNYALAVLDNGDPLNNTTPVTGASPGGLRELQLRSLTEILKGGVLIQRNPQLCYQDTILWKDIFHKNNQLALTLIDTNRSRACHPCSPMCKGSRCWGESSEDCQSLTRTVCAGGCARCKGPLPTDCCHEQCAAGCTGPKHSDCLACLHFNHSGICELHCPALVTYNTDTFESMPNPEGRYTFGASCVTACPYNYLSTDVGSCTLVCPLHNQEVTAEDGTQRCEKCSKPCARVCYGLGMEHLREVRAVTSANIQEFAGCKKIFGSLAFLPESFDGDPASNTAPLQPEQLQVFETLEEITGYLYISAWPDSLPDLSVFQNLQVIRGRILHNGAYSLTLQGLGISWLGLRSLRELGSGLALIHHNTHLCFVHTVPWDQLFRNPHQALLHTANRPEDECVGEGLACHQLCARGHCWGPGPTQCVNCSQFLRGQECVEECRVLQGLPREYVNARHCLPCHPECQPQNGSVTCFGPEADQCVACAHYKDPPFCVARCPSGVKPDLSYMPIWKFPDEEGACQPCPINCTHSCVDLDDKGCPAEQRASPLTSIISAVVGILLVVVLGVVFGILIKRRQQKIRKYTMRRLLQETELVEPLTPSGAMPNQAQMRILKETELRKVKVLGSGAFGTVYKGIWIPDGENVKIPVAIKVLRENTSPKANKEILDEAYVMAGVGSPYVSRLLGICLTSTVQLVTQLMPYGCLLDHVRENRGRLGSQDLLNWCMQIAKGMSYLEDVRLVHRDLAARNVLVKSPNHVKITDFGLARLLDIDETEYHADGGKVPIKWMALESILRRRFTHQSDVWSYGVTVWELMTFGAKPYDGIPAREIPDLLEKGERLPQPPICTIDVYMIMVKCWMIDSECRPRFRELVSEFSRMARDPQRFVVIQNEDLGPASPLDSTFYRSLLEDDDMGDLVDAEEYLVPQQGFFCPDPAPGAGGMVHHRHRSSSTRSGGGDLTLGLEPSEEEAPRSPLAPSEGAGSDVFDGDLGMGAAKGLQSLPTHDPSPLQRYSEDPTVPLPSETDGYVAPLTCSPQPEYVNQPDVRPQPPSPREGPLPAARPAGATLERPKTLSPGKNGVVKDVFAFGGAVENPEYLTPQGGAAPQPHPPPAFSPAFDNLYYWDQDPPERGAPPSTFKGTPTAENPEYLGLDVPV
Sequence of Cyclin-dependent kinase 1 (P06493 whole entry): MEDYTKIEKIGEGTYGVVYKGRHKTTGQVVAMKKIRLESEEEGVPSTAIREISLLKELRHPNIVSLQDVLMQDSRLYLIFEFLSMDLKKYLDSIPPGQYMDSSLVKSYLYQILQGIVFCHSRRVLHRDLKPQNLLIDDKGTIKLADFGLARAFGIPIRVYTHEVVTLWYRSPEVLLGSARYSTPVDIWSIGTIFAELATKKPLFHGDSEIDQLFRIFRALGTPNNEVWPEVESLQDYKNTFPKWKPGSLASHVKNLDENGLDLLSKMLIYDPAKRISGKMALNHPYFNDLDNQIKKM
Sequence of Fibroblast growth factor receptor 1 (P11362 whole entry): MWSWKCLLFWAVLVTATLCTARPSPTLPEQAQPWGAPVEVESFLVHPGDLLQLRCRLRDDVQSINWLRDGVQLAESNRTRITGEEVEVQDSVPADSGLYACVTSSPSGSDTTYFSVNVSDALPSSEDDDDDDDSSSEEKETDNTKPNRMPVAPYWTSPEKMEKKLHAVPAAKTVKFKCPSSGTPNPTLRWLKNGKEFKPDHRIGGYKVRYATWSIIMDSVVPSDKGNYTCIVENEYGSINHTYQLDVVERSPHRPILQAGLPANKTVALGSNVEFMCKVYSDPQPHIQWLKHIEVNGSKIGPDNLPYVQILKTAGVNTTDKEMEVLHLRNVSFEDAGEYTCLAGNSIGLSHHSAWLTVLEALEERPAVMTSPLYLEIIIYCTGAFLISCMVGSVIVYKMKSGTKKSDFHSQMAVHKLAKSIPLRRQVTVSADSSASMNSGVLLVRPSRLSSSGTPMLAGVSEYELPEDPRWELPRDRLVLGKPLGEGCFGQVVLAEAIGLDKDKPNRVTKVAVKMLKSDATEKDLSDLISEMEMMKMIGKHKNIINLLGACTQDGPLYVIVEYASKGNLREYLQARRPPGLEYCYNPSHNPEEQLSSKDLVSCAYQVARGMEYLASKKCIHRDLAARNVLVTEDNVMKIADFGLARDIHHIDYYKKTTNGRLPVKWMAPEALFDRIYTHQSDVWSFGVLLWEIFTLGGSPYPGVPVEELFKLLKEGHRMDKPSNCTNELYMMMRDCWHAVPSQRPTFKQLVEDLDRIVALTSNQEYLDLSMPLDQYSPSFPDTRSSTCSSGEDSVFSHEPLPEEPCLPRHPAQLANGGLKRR

SMILES: COC(=O)c1ccc2c(c1)NC(=O)/C2=C(\Nc1cccc(C(=O)N(C)CCCN(C)C)c1)c1ccccc1
- IC50 [1]: 248 nM

SMILES: CNC(=O)c1ccc2c(c1)NC(=O)/C2=C(\Nc1ccc(CN2CCCCC2)cc1)c1ccccc1
- EC50 (HUVEC): 1910 nM
- IC50 [1]: 2100 nM

SMILES: Nc1ccc2c(c1)NC(=O)/C2=C(\Nc1ccc(CN2CCCCC2)cc1)c1ccccc1
- EC50 (HUVEC): 414 nM
- IC50 [1]: 132 nM

SMILES: COC(=O)c1ccc2c(c1)NC(=O)/C2=C(\Nc1ccc(CN2CCCCC2)cc1)c1ccccc1
- EC50 (HUVEC): 103 nM
- AUC [2]: 5250 ng·h/mL
- IC50 [3]: 32 nM
- half-life [4]: 3.5 h
- EC50 (HeLa): > 1000 nM
- IC50 [5]: 146 nM
- IC50 [6]: 71 nM
- IC50 [7]: 54 nM
- IC50 [1]: 36 nM
- Cmax [8]: 952 ng/mL

SMILES: O=C1Nc2cc(-n3cccc3)ccc2/C1=C(/Nc1ccc(CN2CCCCC2)cc1)c1ccccc1
- EC50 (HUVEC): 585 nM
- IC50 [1]: 791 nM

SMILES: NC(=O)c1ccc2c(c1)NC(=O)/C2=C(\Nc1ccc(CN2CCCCC2)cc1)c1ccccc1
- EC50 (HUVEC): 342 nM
- IC50 [9]: > 10000 nM
- IC50 (Insulin receptor): > 10000 nM
- IC50 [10]: > 10000 nM
- IC50 [11]: > 10000 nM
- IC50 [12]: > 10000 nM
- IC50 [13]: > 10000 nM
- IC50 [1]: 763 nM
- IC50 [14]: > 10000 nM

SMILES: COC(=O)c1ccc2c(c1)NC(=O)/C2=C(\Nc1ccccc1)c1ccccc1
- IC50 [1]: 8000 nM

SMILES: CC(=O)Nc1ccc2c(c1)NC(=O)/C2=C(\Nc1ccc(CN2CCCCC2)cc1)c1ccccc1
- IC50 [1]: > 3000 nM

SMILES: N#Cc1ccc2c(c1)NC(=O)/C2=C(\Nc1ccc(CN2CCCCC2)cc1)c1ccccc1
- EC50 (HUVEC): 281 nM
- IC50 [1]: 248 nM

More lines, main results first:

- EC50 (HeLa): > 1000 nM
- IC50 [1]: 109 nM
SMILES: CCOC(=O)c1ccc2c(c1)NC(=O)/C2=C(\Nc1ccc(CN2CCCCC2)cc1)c1ccccc1
- EC50 (HUVEC): 47 nM

- IC50 [1]: 1230 nM
SMILES: CC(C)NC(=O)c1ccc2c(c1)NC(=O)/C2=C(\Nc1ccc(CN2CCCCC2)cc1)c1ccccc1
- EC50 (HUVEC): 1070 nM

- IC50 [1]: 12 nM
SMILES: COC(=O)c1ccc2c(c1)NC(=O)/C2=C(\Nc1ccc(N(CCN(C)C)C(C)=O)cc1)c1ccccc1
- EC50 (HUVEC): 15 nM

- IC50 [1]: 64 nM
SMILES: COC(=O)c1ccc2c(c1)NC(=O)/C2=C(\Nc1ccc(CN(C)C)cc1)c1ccccc1

- IC50 [1]: 119 nM
SMILES: COC(=O)c1ccc2c(c1)NC(=O)/C2=C(\Nc1ccc(NC(=O)CN(C)C)cc1)c1ccccc1
- EC50 (HUVEC): 88 nM

- EC50 (Calu-6): > 1000 nM
- concentration at 2 h [15]: 1250 nM
- IC50 [9]: > 10000 nM
- IC50 (Insulin receptor): > 10000 nM
- IC50 [3]: 10 nM
- concentration at 24 h [18]: 16 nM
- EC50 (HeLa): > 1000 nM
- IC50 [10]: > 10000 nM
- IC50 [11]: > 10000 nM
- IC50 [5]: 82 nM
- IC50 [12]: > 10000 nM
- IC50 [6]: 50 nM
- IC50 [13]: > 10000 nM
- IC50 [7]: 20 nM
- IC50 [1]: 61 nM
- IC50 [14]: > 10000 nM
SMILES: COC(=O)c1ccc2c(c1)NC(=O)/C2=C(\Nc1ccc(CN(C)C(=O)N(C)C)cc1)c1ccccc1
- IC50 (HUVEC): 22 nM
- EC50 (FaDu [16]): > 1000 nM
- T/C (FaDu [17]): 31%
- T/C (FaDu [19]): 13%
- T/C (FaDu [20]): 11%

- IC50 [1]: 9 nM
SMILES: COC(=O)c1ccc2c(c1)NC(=O)/C2=C(\Nc1ccc(N(CCCN(C)C)C(C)=O)cc1)c1ccccc1
- EC50 (HUVEC): 15 nM

- IC50 [1]: 83 nM
SMILES: COC(=O)c1ccc2c(c1)NC(=O)/C2=C(\Nc1ccc(NC(=O)CN2CCN(C)CC2)cc1)c1ccccc1
- EC50 (HUVEC): 83 nM
